Molecules are shown by their SMILES. Activity calls are given as the source filed them.

A short description of experiment [1]: viability loss of HPDE-C7K cells – cell-based, fluorescence, HTS, primary screen (AID 431). The experiment is classed as functional. Particulars: Homo sapiens.
Another experiment deals with NS3 (Hepatitis C virus, UniProt A3EZJ3). Description: PubChem AID 2173. Also noted: species or system Hepacivirus hominis.
Experiment [2] in a line: HPDE-C7 pancreatic duct cell viability loss – fluorescence, HTS (AID 430). It counts as functional, cell-based. Particulars: Homo sapiens.
Experiment [3] has as its target T1, Aryl hydrocarbon receptor (Homo sapiens, UniProt P35869).
T1 sequence (P35869 whole entry): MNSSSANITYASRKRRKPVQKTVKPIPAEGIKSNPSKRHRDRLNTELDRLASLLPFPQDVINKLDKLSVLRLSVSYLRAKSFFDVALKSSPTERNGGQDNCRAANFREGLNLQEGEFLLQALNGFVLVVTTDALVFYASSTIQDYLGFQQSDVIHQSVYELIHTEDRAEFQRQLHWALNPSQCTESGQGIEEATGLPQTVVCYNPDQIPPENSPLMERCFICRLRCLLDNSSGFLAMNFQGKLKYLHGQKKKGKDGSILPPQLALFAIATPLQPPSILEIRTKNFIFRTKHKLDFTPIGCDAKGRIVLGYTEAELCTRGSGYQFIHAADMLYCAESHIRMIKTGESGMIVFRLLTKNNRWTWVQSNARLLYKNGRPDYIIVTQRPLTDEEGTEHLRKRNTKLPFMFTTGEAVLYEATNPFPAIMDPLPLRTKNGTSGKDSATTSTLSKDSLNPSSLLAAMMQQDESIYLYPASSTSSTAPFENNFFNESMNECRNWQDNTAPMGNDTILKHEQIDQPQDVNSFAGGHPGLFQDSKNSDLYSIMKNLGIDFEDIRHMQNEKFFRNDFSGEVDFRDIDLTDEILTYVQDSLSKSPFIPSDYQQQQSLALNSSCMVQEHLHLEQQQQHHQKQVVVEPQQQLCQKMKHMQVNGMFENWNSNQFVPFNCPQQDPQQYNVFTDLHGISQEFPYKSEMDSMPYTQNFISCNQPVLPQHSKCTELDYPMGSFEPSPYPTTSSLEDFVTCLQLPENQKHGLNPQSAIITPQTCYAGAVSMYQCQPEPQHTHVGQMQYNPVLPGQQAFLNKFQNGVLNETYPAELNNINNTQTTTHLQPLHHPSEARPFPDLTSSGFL
The experiment can be described thus: Luminescence-based cell-based high throughput dose response assay for activators of the Aryl Hydrocarbon Receptor (AHR). [Related pubchem assays: 2796 (Primary screen (AHR activators in singlicate)), 2845 (Confirmation screen (AHR activators in triplicate)), 434939 (Counterscreen (PXR activators in triplicate)), 2804 (Summary (AHR activators))]. The experiment is classed as ADME. (In general: The purpose of a counterscreen is to sort out artefacts and off-target activity.)

Experiment [4] concerns the target T2, Neuropeptide Y receptor type 2 (Homo sapiens, UniProt P49146).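 Note: HEK293 cells expressing the receptor and a CNG channel; stimulus was NPY near EC95 followed by isoproterenol to raise cAMP; antagonist potency measured as restoring cAMP signal that NPY suppresses.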
T2 sequence (P49146 whole entry): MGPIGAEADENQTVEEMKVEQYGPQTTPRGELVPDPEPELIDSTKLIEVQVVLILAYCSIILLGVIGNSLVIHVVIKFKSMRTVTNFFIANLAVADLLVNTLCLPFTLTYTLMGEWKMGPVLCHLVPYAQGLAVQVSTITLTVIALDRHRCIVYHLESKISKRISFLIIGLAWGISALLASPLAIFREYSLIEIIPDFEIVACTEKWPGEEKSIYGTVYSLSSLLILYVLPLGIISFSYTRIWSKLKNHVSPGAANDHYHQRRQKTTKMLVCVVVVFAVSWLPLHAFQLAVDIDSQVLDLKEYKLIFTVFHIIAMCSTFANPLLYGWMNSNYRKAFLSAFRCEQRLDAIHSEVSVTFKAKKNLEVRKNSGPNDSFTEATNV
It counts as functional, cell-based.

Experiment [5] concerns the target T3, Neuropeptide Y receptor type 1 (Homo sapiens, UniProt P25929).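 Note: HEK293 cells with a CNG channel challenged with NPY then isoproterenol; potency as antagonist that reverses NPY suppression of cAMP signal.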
T3 sequence (P25929 whole entry): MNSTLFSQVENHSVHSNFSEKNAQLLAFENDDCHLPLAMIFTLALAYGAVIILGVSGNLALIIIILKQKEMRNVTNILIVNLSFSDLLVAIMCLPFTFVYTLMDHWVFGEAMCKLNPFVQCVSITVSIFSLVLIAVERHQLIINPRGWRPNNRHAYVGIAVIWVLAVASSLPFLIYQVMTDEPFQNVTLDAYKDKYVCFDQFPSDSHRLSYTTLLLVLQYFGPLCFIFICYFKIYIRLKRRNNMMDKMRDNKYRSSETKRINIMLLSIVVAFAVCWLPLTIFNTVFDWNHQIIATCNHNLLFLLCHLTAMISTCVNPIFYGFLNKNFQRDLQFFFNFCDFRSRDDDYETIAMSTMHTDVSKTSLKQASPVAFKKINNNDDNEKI
The experiment is classed as functional.

In experiment [6] the target is Beta-lactamase (Salmonella choleraesuis (strain SC-B67), UniProt Q5J463).
Beta-lactamase (Salmonella choleraesuis (strain SC-B67), UniProt Q5J463), sequence (Q5J463 whole entry): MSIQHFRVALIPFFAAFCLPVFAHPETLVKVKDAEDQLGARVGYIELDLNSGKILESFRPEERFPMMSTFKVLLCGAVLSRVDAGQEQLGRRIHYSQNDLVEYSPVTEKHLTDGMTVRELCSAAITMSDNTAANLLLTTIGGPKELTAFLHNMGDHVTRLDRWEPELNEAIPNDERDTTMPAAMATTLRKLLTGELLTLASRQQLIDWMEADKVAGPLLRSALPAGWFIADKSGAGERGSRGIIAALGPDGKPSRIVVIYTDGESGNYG
The target of experiment [7] is T4, Insulin-degrading enzyme (Homo sapiens, UniProt P14735).
T4 sequence (P14735 whole entry): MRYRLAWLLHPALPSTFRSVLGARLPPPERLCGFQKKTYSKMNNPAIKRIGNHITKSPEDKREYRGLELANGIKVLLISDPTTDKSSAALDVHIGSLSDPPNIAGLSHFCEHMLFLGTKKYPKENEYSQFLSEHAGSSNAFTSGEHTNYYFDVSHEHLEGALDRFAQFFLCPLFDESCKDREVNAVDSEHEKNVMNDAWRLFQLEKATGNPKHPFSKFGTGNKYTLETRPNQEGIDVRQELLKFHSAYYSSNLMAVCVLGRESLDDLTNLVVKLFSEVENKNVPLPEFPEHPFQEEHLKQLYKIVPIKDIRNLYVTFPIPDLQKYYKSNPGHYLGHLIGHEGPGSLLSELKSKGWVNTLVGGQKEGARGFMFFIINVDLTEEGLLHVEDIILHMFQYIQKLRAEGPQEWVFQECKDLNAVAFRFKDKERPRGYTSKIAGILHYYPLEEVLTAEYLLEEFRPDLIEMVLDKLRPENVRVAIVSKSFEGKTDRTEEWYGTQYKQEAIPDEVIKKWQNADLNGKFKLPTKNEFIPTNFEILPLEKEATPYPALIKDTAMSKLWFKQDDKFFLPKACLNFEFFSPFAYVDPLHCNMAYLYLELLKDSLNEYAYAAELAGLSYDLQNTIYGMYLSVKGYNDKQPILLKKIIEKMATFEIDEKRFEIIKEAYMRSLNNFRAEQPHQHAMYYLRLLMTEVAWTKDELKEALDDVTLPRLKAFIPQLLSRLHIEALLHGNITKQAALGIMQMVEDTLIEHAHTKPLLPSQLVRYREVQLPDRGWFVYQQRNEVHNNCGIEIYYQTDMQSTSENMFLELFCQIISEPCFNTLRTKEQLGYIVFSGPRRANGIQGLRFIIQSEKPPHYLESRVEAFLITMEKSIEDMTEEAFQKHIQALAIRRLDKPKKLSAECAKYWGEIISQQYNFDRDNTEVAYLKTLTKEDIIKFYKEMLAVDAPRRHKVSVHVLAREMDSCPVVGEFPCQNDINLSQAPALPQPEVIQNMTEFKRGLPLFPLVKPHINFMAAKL
The experiment can be described thus: cellular IDE activation of Abeta substrate cleavage – fluorescence polarization, HEK cells, dose response (AID 588439). It counts as functional, cell-based. (Polarisation of emitted light reports the rotation of a fluorescent probe.)

Experiment [8] deals with T4, Insulin-degrading enzyme. The experiment can be described thus: recombinant IDE activation, cell-free – biochemical, fluorescence polarization, counter-screen for IDE activator project, dose response (AID 588681).
In experiment [9] the target is Beta-lactamase (Pseudomonas aeruginosa, UniProt Q79MP6).
Beta-lactamase (Pseudomonas aeruginosa, UniProt Q79MP6), sequence (Q79MP6 whole entry): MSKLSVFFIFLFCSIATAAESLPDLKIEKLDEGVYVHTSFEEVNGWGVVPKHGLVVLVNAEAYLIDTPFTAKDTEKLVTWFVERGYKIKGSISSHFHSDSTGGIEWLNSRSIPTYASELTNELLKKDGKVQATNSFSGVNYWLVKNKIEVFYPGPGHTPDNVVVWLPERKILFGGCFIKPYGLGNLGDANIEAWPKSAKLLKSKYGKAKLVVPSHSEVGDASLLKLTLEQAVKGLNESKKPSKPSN
For experiment [10], the system named is HEK293. Description: optical interference in Abeta FP readout, dose response, artefact control for IDE activator project, biochemical, fluorescence polarization (AID 588442). It counts as functional, cell-based. Particulars: Homo sapiens.
Experiment [11] has as its target E3 ubiquitin-protein ligase XIAP (Homo sapiens, UniProt P98170). Description: Counter Screen using XIAP-Bir3 for Chemical Antagonists of Bir1/2 domains of IAP-family anti-apoptotic proteins. [Related pubchem assays (depositor defined):AID1018, AID1449, AID1514, AID1638, AID1749, AID1750, AID488957, AID488963].
Experiment [12] has as its system HEK293. The experiment can be described thus: membrane integrity loss in HEK cells – cell-based, fluorescence, cytotoxicity control for IDE activator project, dose response (AID 588440).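 Note: cytotoxicity by LDH release measuring loss of membrane integrity.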 The experiment is classed as functional. Particulars: Homo sapiens.
The nature of experiment [13]: Luminescence-based dose response cell-based high throughput screening assay for cytotoxic compounds using the IEC-6 intestinal epithelial cell line. [Related pubchem assays: 1858 (Summary AID.), 1825 (Counterscreen.), 1907 (Confirmation screen.)]. The experiment is classed as functional.
In another experiment the target is Cytochrome P450 2D6 (Homo sapiens, UniProt P10635). Description: qHTS Assay for Inhibitors and Substrates of Cytochrome P450 2D6. [Related pubchem assays: 410 ]. The experiment is classed as ADME. Particulars: read-out: Potency.
Cytochrome P450 2D6, sequence (P10635 whole entry): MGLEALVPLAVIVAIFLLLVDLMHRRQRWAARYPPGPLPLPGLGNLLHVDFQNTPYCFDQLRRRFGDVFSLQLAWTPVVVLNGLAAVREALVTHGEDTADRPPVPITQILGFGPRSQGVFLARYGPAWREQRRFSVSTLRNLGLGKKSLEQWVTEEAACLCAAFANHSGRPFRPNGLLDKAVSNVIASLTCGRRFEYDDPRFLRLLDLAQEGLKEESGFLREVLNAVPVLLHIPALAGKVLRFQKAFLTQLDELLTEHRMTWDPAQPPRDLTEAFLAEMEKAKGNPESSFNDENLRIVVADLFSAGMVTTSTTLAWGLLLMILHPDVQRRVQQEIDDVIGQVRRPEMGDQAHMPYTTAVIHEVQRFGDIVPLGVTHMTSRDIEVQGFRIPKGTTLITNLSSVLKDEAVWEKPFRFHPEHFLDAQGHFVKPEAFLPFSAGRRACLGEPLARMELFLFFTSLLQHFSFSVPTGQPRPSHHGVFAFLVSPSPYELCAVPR
Experiment [14] addresses T5, Serine/threonine-protein phosphatase (Candida dubliniensis (strain CD36 / CBS 7987 / NCPF 3949 / NRRLY-17841) (Yeast), UniProt B9W6M3).
T5 sequence (B9W6M3 whole entry): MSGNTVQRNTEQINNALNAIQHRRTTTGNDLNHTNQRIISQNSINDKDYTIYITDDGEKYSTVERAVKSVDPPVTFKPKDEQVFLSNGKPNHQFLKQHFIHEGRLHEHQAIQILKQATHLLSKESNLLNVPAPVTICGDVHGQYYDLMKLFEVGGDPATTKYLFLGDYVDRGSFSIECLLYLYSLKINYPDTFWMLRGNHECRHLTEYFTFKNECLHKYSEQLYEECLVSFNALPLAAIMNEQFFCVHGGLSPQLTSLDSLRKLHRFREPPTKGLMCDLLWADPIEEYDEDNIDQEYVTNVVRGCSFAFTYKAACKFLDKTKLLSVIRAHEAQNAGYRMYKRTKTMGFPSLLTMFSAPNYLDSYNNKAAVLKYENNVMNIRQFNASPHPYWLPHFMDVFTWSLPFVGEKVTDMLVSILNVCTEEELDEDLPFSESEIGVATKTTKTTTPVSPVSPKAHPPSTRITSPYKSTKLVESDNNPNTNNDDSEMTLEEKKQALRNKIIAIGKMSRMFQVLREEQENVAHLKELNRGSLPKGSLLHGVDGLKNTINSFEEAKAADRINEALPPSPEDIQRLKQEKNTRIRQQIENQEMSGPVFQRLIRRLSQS
The experiment can be described thus: blockers of CaCl2-induced CDRE-lacZ signaling – S. cerevisiae, luminescence, secondary, dose response (AID 2388).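 Note: yeast reporter cells carrying a calcineurin-responsive lacZ construct stimulated with calcium chloride; luminescent beta-galactosidase reporter signal in whole cells rather than isolated phosphatase activity; potency for inhibition where a drop in reporter signal means calcineurin blockade.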 The experiment is classed as functional, cell-based.

Experiment [15] has as its target ATP-dependent molecular chaperone HSP82 (Candida albicans (strain WO-1) (Yeast), UniProt C4YTQ8). The experiment can be described thus: steroid-induced GRE reporter decrease in yeast – S. cerevisiae, luminescence, Hsp90 inhibitor project, dose response (AID 2400).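 Note: beta-galactosidase luminescence from glucocorticoid response element reporter as proxy for Hsp90 function; inhibitor potency where signal loss means Hsp90 inhibition.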 It counts as functional, cell-based.
The target in another experiment is Large T antigen (Simian virus 40, UniProt P03070). The experiment is classed as functional, Betapolyomavirus macacae.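 Note: Confirmatory-stage PubChem screen for compounds that inhibit SV40 T antigen.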
Large T antigen, sequence (P03070 whole entry): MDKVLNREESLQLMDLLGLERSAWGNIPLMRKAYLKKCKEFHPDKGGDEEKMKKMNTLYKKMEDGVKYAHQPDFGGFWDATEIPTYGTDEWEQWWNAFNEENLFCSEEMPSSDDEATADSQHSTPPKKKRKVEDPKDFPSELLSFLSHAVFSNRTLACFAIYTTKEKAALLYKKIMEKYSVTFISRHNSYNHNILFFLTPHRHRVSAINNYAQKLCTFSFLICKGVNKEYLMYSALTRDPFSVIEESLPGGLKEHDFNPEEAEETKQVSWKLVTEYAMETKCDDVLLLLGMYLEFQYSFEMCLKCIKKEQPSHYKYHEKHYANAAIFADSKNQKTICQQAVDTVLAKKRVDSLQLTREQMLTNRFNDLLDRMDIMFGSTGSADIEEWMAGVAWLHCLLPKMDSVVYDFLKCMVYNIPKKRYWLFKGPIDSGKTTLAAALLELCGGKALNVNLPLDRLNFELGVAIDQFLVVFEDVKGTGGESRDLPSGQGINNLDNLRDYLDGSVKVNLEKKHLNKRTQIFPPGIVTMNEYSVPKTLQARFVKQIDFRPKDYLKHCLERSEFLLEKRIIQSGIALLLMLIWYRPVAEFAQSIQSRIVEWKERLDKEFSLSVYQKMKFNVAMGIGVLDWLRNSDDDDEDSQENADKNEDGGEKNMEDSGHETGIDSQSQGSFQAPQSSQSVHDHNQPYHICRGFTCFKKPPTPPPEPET
Experiment [16] is described as follows: NIH-3T3 fibroblast cytotoxicity, dose response, cytotoxicity control, cell-based, fluorescence, Alamar Blue, secondary assay (AID 2327).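 Note: NIH-3T3 mouse fibroblasts cultured with fluconazole at 8 µg/mL.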 It counts as functional.
A short description of experiment [17]: CCR5-tropic HIV-1 fusion blockers – cell-based, CCR5-tropic Env, dose response (AID 2279). It counts as functional.
Experiment [18] in a line: fluconazole-exposed Candida albicans growth modulators – fluorescence, retest, confirmation (AID 2467). The experiment is classed as functional, cell-based.

NS3, sequence (A3EZJ3 whole entry): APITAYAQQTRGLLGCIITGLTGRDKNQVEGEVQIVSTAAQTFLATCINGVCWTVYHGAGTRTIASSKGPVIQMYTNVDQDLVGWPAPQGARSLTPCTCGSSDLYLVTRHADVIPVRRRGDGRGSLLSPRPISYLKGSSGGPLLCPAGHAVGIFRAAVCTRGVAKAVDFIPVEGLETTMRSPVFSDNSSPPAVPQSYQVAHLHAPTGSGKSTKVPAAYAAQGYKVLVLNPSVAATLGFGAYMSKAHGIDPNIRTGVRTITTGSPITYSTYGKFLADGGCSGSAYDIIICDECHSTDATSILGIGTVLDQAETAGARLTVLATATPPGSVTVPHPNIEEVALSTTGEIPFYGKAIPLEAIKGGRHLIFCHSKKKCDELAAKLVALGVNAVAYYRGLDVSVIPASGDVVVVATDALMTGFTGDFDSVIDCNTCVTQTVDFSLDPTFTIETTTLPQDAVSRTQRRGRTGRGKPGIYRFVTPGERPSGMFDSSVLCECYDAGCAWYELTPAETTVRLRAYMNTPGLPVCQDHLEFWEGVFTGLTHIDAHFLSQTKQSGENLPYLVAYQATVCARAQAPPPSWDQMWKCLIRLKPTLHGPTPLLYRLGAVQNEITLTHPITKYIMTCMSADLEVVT
ATP-dependent molecular chaperone HSP82, sequence (C4YTQ8 whole entry): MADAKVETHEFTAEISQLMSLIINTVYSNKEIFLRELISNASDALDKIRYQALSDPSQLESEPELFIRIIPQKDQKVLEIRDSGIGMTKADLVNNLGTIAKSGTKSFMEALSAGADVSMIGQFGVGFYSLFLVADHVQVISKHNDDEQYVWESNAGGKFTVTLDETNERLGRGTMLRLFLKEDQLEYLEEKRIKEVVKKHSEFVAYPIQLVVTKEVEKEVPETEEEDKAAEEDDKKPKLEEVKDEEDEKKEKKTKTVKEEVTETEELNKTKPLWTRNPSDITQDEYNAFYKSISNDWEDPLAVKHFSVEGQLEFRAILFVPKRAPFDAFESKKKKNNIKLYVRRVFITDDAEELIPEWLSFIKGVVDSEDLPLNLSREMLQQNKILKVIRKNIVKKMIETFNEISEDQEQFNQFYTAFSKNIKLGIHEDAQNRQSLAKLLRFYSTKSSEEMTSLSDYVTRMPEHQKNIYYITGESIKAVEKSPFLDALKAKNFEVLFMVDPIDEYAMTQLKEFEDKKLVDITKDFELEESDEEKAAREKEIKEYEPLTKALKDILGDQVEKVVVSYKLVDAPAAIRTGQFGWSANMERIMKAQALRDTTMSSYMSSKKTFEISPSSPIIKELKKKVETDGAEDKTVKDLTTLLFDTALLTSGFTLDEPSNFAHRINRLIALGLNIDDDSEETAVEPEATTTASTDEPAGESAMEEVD
E3 ubiquitin-protein ligase XIAP, sequence (P98170 whole entry): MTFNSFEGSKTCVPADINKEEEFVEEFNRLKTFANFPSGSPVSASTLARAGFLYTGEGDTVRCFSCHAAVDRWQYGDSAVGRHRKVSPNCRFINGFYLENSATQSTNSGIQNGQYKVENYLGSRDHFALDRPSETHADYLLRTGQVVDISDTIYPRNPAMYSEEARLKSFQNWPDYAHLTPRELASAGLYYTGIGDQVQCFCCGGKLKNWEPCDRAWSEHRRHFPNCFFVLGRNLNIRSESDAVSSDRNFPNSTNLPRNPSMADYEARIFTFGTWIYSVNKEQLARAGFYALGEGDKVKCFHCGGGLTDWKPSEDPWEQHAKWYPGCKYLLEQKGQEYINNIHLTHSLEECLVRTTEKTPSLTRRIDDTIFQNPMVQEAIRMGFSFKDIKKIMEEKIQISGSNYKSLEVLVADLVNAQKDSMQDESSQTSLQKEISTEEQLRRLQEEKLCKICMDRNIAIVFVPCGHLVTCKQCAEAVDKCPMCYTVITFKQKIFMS

As for `O=C(c1ccc2nc(-c3ccco3)c(-c3ccco3)nc2c1)N1CCN(c2ccccc2)CC1`, the EC50 is > 20 µM (not active) in experiment [1] and 18 µM (active) in [2]. In addition, the IC50 on NS3 is 19.7 µM (not active).

`O=C(/C=C\c1cccs1)c1c(O)ccc2ccc(=O)oc12`: the EC50 in experiment [3] is 3.41 µM (active).

Turning to `CCCCNC(=O)c1onc(CSc2ccccc2F)c1C(=O)O`, the IC50 in [4] is on record as 13.3 µM (not active); in [5], 14.7 µM (not active).

With `Nn1c(Cc2cccc3ccccc23)nnc1SCc1c(Cl)cccc1Cl`, the IC50 is 4.3 µM (active) in experiment [4] and 5.1 µM (active) in [5].

For `O=c1ccc2c(-c3ccccc3)c3ccc(O)cc3oc-2c1`, the IC50 on Beta-lactamase [6] is 0.19 µM (active); on Beta-lactamase [9], 0.399 µM (active); in [11], > 20 µM (inactive); on NS3, 7.38 µM (active); in the experiment with HEK293 [12], > 89.1 µM (inactive). In addition, the EC50 at Insulin-degrading enzyme [7], at Insulin-degrading enzyme [8] and in the experiment with HEK293 [10] was > 54.6 µM (inactive) in each case.

In the case of `CCC[C@@H](CNC)NC[C@H](Cc1ccccc1)NCCCCc1ccccc1`, the IC50 in experiment [13] is 5.4 µM (active).

As for `C=C(C)C(O)/C=C/c1ccc(Br)cc1` (stereo unspecified), the AC50 at Cytochrome P450 2D6 is 3.16 µM (inconclusive).

As for `COC(=O)C1C(C)OC(=O)NC1c1ccccc1` (stereo unspecified), the AC50 at Cytochrome P450 2D6 is 3.16 µM (inconclusive).

For `O=C(N/N=C/c1cc(Br)c(O)c(Br)c1)c1cc2c(ccc3ccccc32)o1`, the EC50 in [14] is 2.58 µM (active); in [15] it was 0.763 µM (active); in experiment [16] it was 64.7 µM (active); in [18], 1.45 µM (active). Besides, the IC50 on Large T antigen was 19.9 µM (active); in [17] it was > 50 µM (active).

Consider `Cc1ccccc1-c1nc(-c2cccnc2)no1`, for which, in experiment [3], the 50% effective concentration (EC50) is 1.74 µM (active).

In general, EC50 refers to the concentration at which the effect is half-maximal. As usually defined, the IC50 is the concentration needed to halve the response being measured.

The values above are taken from ChEMBL document CHEMBL1201862, “PubChem BioAssay data set” (2004).
